Experimental data: US12472218B2, “Seneca valley virus (SVV) cellular receptor targeted oncotherapy” (Memorial Sloan-Kettering Cancer Center, priority 2015, dated 2025)

Columns and labels:
[1] = system: H1618 and DMS79 cells; assay: IFN response activity assay: pre-treatment, SVV-GFP challenge, flow cytometry; settings: then SVV-GFP 16 h, both cell lines; for GFP+ cells compared to untreated cells: 4 μM HDAC inhibitor pre-treatment 24 h
[2] = system: ANTXR1 KO H446 cells; assay: SVV-Cy5 binding experiment, flow cytometry; design: species or system human; settings: SVV-Cy5 30 min at 37° C.
Procedure: (§1) SVV was incubated with the amine-reactive Cy5 dye (GE Healthcare) in sodium carbonate buffer (pH 9.3) for 1 h at room temperature (RT). Excess dye was removed by filtration through gel filtration columns (GE Healthcare) in HEPES buffer. Virus aliquots were stored at −80° C. parental, ANTXR1 KO, and TEX2 KO H446 cells were incubated with SVV-Cy5 for 30 min at 37° C. in OptiMEM. The non-permissive SCLC cell line, DMS114, was used as a negative control. […] All compensation and gating were performed with FlowJo analysis software (TreeStar) as described below.

[3] = system: TEX2 KO H446 cells; assay: SVV-Cy5 binding experiment, flow cytometry; design: species or system human; settings: SVV-Cy5 30 min at 37° C.
Procedure: as §1

[4] = system: parental H446 cells; assay: SVV-Cy5 binding experiment, flow cytometry; design: species or system human; settings: SVV-Cy5 30 min at 37° C.
Procedure: as §1

[5] = system: DMS114 cells; assay: SVV-Cy5 binding experiment, flow cytometry; design: species or system human; settings: SVV-Cy5 30 min at 37° C.; non-permissive negative control line
Procedure: as §1

[6] = target: T1, Seneca Valley Virus (SVV) (Seneca Valley Virus, UniProt Q155Z9 674-937; Q155Z9 151-434; Q155Z9 435-673; Q155Z9 80-150); assay: co-immunoprecipitation on Protein G Dynabeads, Western blot with SVV rabbit antisera
T1 construct: domain: VP1;domain: VP2;domain: VP3;domain: VP4; also called SVV-001; WT SVV
T1 sequence 1: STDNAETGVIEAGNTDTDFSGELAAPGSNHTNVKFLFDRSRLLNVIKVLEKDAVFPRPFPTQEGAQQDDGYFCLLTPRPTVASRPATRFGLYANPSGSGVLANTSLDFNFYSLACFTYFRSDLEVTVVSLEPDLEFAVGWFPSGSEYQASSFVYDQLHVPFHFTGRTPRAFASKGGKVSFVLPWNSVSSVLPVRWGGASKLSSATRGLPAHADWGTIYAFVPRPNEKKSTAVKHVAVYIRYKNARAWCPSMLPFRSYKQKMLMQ
T1 sequence 2: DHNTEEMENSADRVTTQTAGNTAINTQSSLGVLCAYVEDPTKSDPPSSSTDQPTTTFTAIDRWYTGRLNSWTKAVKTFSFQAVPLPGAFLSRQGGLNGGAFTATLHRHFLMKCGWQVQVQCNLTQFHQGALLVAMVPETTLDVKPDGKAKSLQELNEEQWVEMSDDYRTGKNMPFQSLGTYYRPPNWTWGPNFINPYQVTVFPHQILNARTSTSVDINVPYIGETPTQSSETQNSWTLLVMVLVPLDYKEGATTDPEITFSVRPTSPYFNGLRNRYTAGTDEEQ
T1 sequence 3: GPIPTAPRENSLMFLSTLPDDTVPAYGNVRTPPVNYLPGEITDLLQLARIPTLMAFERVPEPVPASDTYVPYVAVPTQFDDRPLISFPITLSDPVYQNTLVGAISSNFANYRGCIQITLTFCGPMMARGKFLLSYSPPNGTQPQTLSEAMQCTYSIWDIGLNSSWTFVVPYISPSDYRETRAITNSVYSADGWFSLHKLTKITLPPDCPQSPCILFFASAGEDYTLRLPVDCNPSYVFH
T1 sequence 4: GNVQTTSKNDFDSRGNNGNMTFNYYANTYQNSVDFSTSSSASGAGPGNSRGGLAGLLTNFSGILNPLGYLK

[7] = system: SVV; assay: Co-immunoprecipitation of SVV with Fc chimera proteins, Western blot; settings: Fc protein on Protein G Dynabeads, SVV 2.0×10^10 vp, 2 h at 4° C.
[8] = system: SVV-GFP; assay: Blocking experiment: SVV-GFP pre-incubated with Fc protein, then added to parental H446 cells; settings: 5 μg/mL Fc protein with SVV-GFP (MOI=5) on ice 1 h, then parental H446 cells overnight

Molecule: IFNα
- SVV permissive, or GFP+ cells ([1]; 25 Units/mL IFN pre-treatment 24 h): decrease

Molecule: O=C(CCCCCCC(=O)Nc1ccccc1)NO [SAHA, Vorinostat]
- GFP+ cells compared to untreated cells [1]: significant increase

Molecule: Nc1ccccc1NC(=O)c1ccc(CNC(=O)OCc2cccnc2)cc1 [MS-275]
- GFP+ cells compared to untreated cells [1]: significant increase

Molecule: SVV-Cy5: WT SVV labeled with the fluorophore Cy5
- mean fluorescence (MF) [2]: 358
- mean fluorescence (MF) [3]: 2,233
- mean fluorescence (MF) [4]: 2,373
- mean fluorescence (MF) [5]: 425

B1: ANTXR2-Fc chimera (Fc fusion)
chain: QEQPSCRRAFDLYFVLDKSGSVANNWIEIYNFVQQLAERFVSPEMRLSFIVFSSQATIILPLTGDRGKISKGLEDLKRVSPVGETYIHEGLKLANEQIQKAGGLKTSSIIIALTDGKLDGLVPSYAEKEAKISRSLGASVYCVGVLDFEQAQLERIADSKEQVFPVKGGFQALKGIINSILAQSCTEILELQPSSVCVGEEFQIVLSGRGFMLGSRNGSVLCTYTVNETYTTSVKPVSVQLNSMLCPAPILNKAGETLDVSVSFNGGKSVISGSLIVTATECSNG
notes: Bought reagent; also called ANTXR2-Fc chimeric protein; ANTXR2-Fc protein; not shown: Fc part of the chimera; the control isotype is an IgG1 Fc
- binding result [6]: no binding

B2: ANTXR1-Fc (protein)
chain: EDGGPACYGGFDLYFILDKSGSVLHHWNEIYYFVEQLAHKFISPQLRMSFIVFSTRGTTLMKLTEDREQIRQGLEELQKVLPGGDTYMHEGFERASEQIYYENRQGYRTASVIIALTDGELHEDLFFYSEREANRSRDLGAIVYCVGVKDFNETQLARIADSKDHVFPVNDGFQALQGIIHSILKKSCIEILAAEPSTICAGESFQVVVRGNGFRHARNVDRVLCSFKINDSVTLNEKPFSVEDTYLLCPAPILKEVGMKAALQVSMNDGLSFISSSVIITTTHCSDGS
modifications: left off: a dimerising Fc or GST
- SVV viral protein bands co-immunoprecipitated (direct interaction with SVV) [7]: viral protein bands were observed
- GFP+ cells (SVV-GFP infection) by fluorescence microscopy [8]: no detectable GFP+ cells

B3: ANTXR2-Fc (protein)
chain: B1 chain
modifications: left off: a dimerising Fc or GST
- SVV viral protein bands co-immunoprecipitated (direct interaction with SVV) [7]: absence of an interaction
- GFP+ cells (SVV-GFP infection) by fluorescence microscopy [8]: high levels of GFP+ cells
